Holding throughout (type): cell-based
Assay [1] relates to Ba/F3-EGFR ins. ASV cells. Put plainly: Cell proliferation suppression test (CellTiter-Glo, GI50), Ba/F3-EGFR ins. ASV. The conditions noted are these: Mus musculus, 72 h, 3 days, N=4. As for the experimental part:
(§1) Cell proliferation suppression test Ba/F3-Mock, Ba/F3-EGFR WT, Ba/F3-EGFR ins. ASV, and Ba/F3-EGFR ins. SVD cell lines were cultured based on a culture medium of 10% FBS-containing RPMI 1640 supplemented with 1.5 ug/mL puromycin, and 5 ng/mL IL-3 and 100 ng/mL of EGF were further added to the culture solution for Ba/F3-Mock and Ba/F3-EGFR WT, respectively. The cells were cultured in a CO2 incubator set at 37° C., 5% CO2. Specimens prepared by dilution were seeded into 384-well tissue culture plates with Echo555 (Labcyte Inc.), and the cells were seeded thereto at 400 cells/well for Ba/F3-Mock, Ba/F3-EGFR WT, and Ba/F3-EGFR ins. SVD and at 200 cells/well for Ba/F3-EGFR ins. ASV (day 0), then they were cultured for an additional 3 days. On the day of the compound addition (day 0) and 3 days after the compound addition (day 3), ATP quantity was measured with CellTiter-Glo (registered trademark) 2.0 (Promega Corporation.), and used as an indicator of cell quantity (N=4). In the test, puromycin-free culture medium was used. Concentrations at which cell proliferation from day 0 to day 3 was inhibited by 50% (GIso) were calculated with EXCEL.

In another assay the test system is Ba/F3-Mock cells. Put plainly: Cell proliferation suppression test (CellTiter-Glo, GI50), Ba/F3-Mock. The note with it: Mus musculus, BaF3, 72 h, 5 ng/mL IL-3, 3 days, N=4. On the procedure:
as §1

Assay [2] concerns Ba/F3-EGFR ins. SVD cells. Put plainly: Cell proliferation suppression test (CellTiter-Glo, GI50), Ba/F3-EGFR ins. SVD. The conditions noted are these: Mus musculus, 72 h, 3 days, N=4. On the procedure:
as §1

The next assay relates to Ba/F3-EGFR WT cells. Put plainly: Cell proliferation suppression test (CellTiter-Glo, GI50), Ba/F3-EGFR WT. The conditions noted are these: Mus musculus, 72 h, 100 ng/mL EGF, 3 days, N=4. On the procedure: as §1

Where only a bound is given, the exact number is not on record here.

Take `COc1cc2ncnc(Nc3ccc(Oc4cccc(-c5nnc(C)s5)c4)cc3F)c2cc1NC(=O)/C=C/CN(C)C` [Example 44, (2E)-4-(Dimethylamino)-N-(4-{2-fluoro-4-[3-(5-methyl-1,3,4-thiadiazol-2-yl)phenoxy]anilino}-7-methoxyquinazolin-6-yl)but-2-enamide]: the GI50 in assay [1] was found to be 15.5 nM; in the assay on Ba/F3-Mock cells it was 724 nM; in assay [2], 52.2 nM; in the assay on Ba/F3-EGFR WT cells, 167 nM.

As for `C=CC(=O)N1CCC(Oc2cc3c(Nc4ccc(Oc5ccn(C(=O)NC6(C)CC6)n5)cc4F)ncnc3cc2OC)CC1` [Example 8, 3-{3-Fluoro-4-[(7-methoxy-6-{[1-(prop-2-enoyl)piperidin-4-yl]oxy}quinazolin-4-yl)amino]phenoxy}-N-(1-methylcyclopropyl)-1H-pyrazole-1-carboxamide], the 50% growth inhibitory concentration (GI50) in assay [1] is 19.8 nM; in the assay with Ba/F3-Mock cells, 7160 nM; in assay [2] it was 19.7 nM; in the assay on Ba/F3-EGFR WT cells, 172 nM.

Turning to `C=CC(=O)N1CCC(Oc2cc3c(Nc4ccc(Oc5ccn(-c6ccnc(Cl)c6)n5)cc4F)ncnc3cc2OC)CC1` [Example 29, 1-(4-{[4-(4-{[1-(2-Chloropyridin-4-yl)-1H-pyrazol-3-yl]oxy}-2-fluoroanilino)-7-methoxyquinazolin-6-yl]oxy}piperidin-1-yl)prop-2-en-1-one], the GI50 in assay [1] was 11.3 nM; in the assay with Ba/F3-Mock cells, over 10000 nM; in assay [2] it was 7.9 nM; in the assay on Ba/F3-EGFR WT cells it was 157 nM.

Regarding `[2H]C([2H])([2H])C(NC(=O)n1ccc(Oc2ccc(Nc3ncnc4cc(OC)c(OC5CCN(C(=O)C=C)CC5)cc34)c(F)c2)n1)(C([2H])([2H])[2H])C([2H])([2H])[2H]` [Example 25, 3-{3-Fluoro-4-[(7-methoxy-6-{[1-(prop-2-enoyl)piperidin-4-yl]oxy}quinazolin-4-yl)amino]phenoxy}-N-[2-(^2H3)methyl(^2H6)propan-2-yl]-1H-pyrazole-1-carboxamide], the GI50 in assay [1] is 18.8 nM; in the assay with Ba/F3-Mock cells, over 10000 nM; in assay [2], 12.4 nM; in the assay on Ba/F3-EGFR WT cells, 180 nM.

Consider `C=CC(=O)N1CCC(Oc2cc3c(Nc4ccc(Oc5ccn(-c6ccc(C)nc6)n5)cc4F)ncnc3cc2OC)CC1` [Example 28, 1-(4-{[4-(2-Fluoro-4-{[1-(6-methylpyridin-3-yl)-1H-pyrazol-3-yl]oxy}anilino)-7-methoxyquinazolin-6-yl]oxy}piperidin-1-yl)prop-2-en-1-one], for which the 50% growth inhibitory concentration (GI50) in assay [1] is 12.4 nM; in the assay on Ba/F3-Mock cells, 8370 nM; in assay [2], 12.1 nM; in the assay with Ba/F3-EGFR WT cells, 290 nM.

Turning to `C=CC(=O)N1CCC(Oc2cc3c(Nc4ccc(Oc5ccn(C(=O)NC(C)(C)C)n5)cc4F)ncnc3cc2OC)CC1` [Example 4, N-tert-Butyl-3-{3-fluoro-4-[(7-methoxy-6-{[1-(prop-2-enoyl)piperidin-4-yl]oxy}quinazolin-4-yl)amino]phenoxy}-1H-pyrazole-1-carboxamide], the concentration for 50% growth inhibition (GI50) amounted to 7.4 nM in assay [1], 7610 nM in the assay with Ba/F3-Mock cells, 5 nM in assay [2] and 78.3 nM in the assay on Ba/F3-EGFR WT cells.

Regarding `C=CC(=O)N1CCC(Oc2cc3c(Nc4ccc(Oc5nc(-c6nnc(C(C)C)o6)cs5)cc4F)ncnc3cc2OC)CC1` [Example 33, 1-[4-({4-[2-Fluoro-4-({4-[5-(propan-2-yl)-1,3,4-oxadiazol-2-yl]-1,3-thiazol-2-yl}oxy)anilino]-7-methoxyquinazolin-6-yl}oxy)piperidin-1-yl]prop-2-en-1-one], the GI50 in assay [1] is 11.3 nM; in the assay on Ba/F3-Mock cells, over 10000 nM; in assay [2] it was 5.8 nM; with Ba/F3-EGFR WT cells, 163 nM.

On to `COc1cc2ncnc(Nc3ccc(Oc4nc(C(=O)NC(C)(C)C)cs4)cc3F)c2cc1NC(=O)/C=C/CN(C)C` [Example 47, N-tert-Butyl-2-{4-[(6-{[(2E)-4-(dimethylamino)but-2-enoyl]amino}-7-methoxyquinazolin-4-yl)amino]-3-fluorophenoxy}-1,3-thiazole-4-carboxamide], for which the GI50 in assay [1] was found to be 16.4 nM; in the assay on Ba/F3-Mock cells, 816 nM; in assay [2] it was 73.1 nM; with Ba/F3-EGFR WT cells it was 145 nM.

For `C=CC(=O)N1CCC(Oc2cc3c(Nc4ccc(Oc5ccn(C(=O)NC(C)C)n5)cc4F)ncnc3cc2OC)CC1` [Example 6, 3-{3-Fluoro-4-[(7-methoxy-6-{[1-(prop-2-enoyl)piperidin-4-yl]oxy}quinazolin-4-yl)amino]phenoxy}-N-(propan-2-yl)-1H-pyrazole-1-carboxamide], the concentration for 50% growth inhibition (GI50) in assay [1] was 19.2 nM; with Ba/F3-Mock cells it was 5660 nM; in assay [2] it was 19.2 nM; in the assay on Ba/F3-EGFR WT cells it was 175 nM.

As for `C=CC(=O)N1CCC(Oc2cc3c(Nc4ccc(Oc5ccn(-c6ccnc(F)c6)n5)cc4F)ncnc3cc2OC)CC1` [Example 30, 1-(4-{[4-(2-Fluoro-4-{[1-(2-fluoropyridin-4-yl)-1H-pyrazol-3-yl]oxy}anilino)-7-methoxyquinazolin-6-yl]oxy}piperidin-1-yl)prop-2-en-1-one], the GI50 in assay [1] was 13.5 nM; with Ba/F3-Mock cells it was over 10000 nM; in assay [2] it was 14 nM; in the assay on Ba/F3-EGFR WT cells, 121 nM.

In the case of `CCOc1cc2ncnc(Nc3ccc(Oc4cccc(-c5nnc(C)o5)c4)cc3F)c2cc1NC(=O)/C=C/CN[C@H]1CCOC1` [Example 52, (2E)-N-(7-Ethoxy-4-{2-fluoro-4-[3-(5-methyl-1,3,4-oxadiazol-2-yl)phenoxy]anilino}quinazolin-6-yl)-4-[(3S)-tetrahydrofuran-3-ylamino]but-2-enamide], the 50% growth inhibitory concentration (GI50) worked out at 11.9 nM in assay [1], 2840 nM with Ba/F3-Mock cells, 19.8 nM in assay [2] and 245 nM in the assay on Ba/F3-EGFR WT cells.

As to `C=CC(=O)N1CCC(Oc2cc3c(Nc4ccc(Oc5ccn(-c6ccnc(OC)c6)n5)cc4F)ncnc3cc2OC)CC1` [Example 9, 1-(4-{[4-(2-Fluoro-4-{[1-(2-methoxypyridin-4-yl)-1H-pyrazol-3-yl]oxy}anilino)-7-methoxyquinazolin-6-yl]oxy}piperidin-1-yl)prop-2-en-1-one], the 50% growth inhibitory concentration (GI50) in assay [1] is 17.1 nM; in the assay on Ba/F3-Mock cells, 9590 nM; in assay [2], 15.3 nM; in the assay with Ba/F3-EGFR WT cells, 280 nM.

As for `C=CC(=O)N1CCC(Oc2cc3c(Nc4ccc(Oc5cccc(C(=O)NC(C)(C)C)c5)cc4F)ncnc3cc2OC)CC1` [Example 1, N-tert-Butyl-3-{3-fluoro-4-[(7-methoxy-6-{[1-(prop-2-enoyl)piperidin-4-yl]oxy}quinazolin-4-yl)amino]phenoxy}benzamide], the GI50 amounted to 15.5 nM in assay [1], 7900 nM in the assay on Ba/F3-Mock cells, 8.9 nM in assay [2] and 115 nM in the assay with Ba/F3-EGFR WT cells.

Consider `COc1cc2ncnc(Nc3ccc(Oc4nn(CC(=O)NC(C)(C)C)cc4F)cc3Cl)c2cc1NC(=O)/C=C/CN1CC[C@H](F)C1` [Example 57, (2E)-N-{4-[4-({1-[2-(tert-Butylamino)-2-oxoethyl]-4-fluoro-1H-pyrazol-3-yl}oxy)-2-chloroanilino]-7-methoxyquinazolin-6-yl}-4-[(3S)-3-fluoropyrrolidin-1-yl]but-2-enamide], for which the GI50 came out at 8.5 nM in assay [1], 5090 nM with Ba/F3-Mock cells, 4.1 nM in assay [2] and 369 nM with Ba/F3-EGFR WT cells.

Take `C=CC(=O)N1CCC(Oc2cc3c(Nc4ccc(Oc5ccn(C(=O)NC6(C(F)(F)F)CC6)n5)cc4F)ncnc3cc2OC)CC1` [Example 22, 3-{3-Fluoro-4-[(7-methoxy-6-{[1-(prop-2-enoyl)piperidin-4-yl]oxy}quinazolin-4-yl)amino]phenoxy}-N-[1-(trifluoromethyl)cyclopropyl]-1H-pyrazole-1-carboxamide]: the GI50 in assay [1] is 14.5 nM; in the assay on Ba/F3-Mock cells, 8620 nM; in assay [2] it was 12.8 nM; in the assay with Ba/F3-EGFR WT cells it was 102 nM.

In the case of `C=CC(=O)N1CCC(Oc2cc3c(Nc4ccc(Oc5nc(C(=O)NC(C)(C)C)cs5)cc4F)ncnc3cc2OC)CC1` [Example 15, N-tert-Butyl-2-{3-fluoro-4-[(7-methoxy-6-{[1-(prop-2-enoyl)piperidin-4-yl]oxy}quinazolin-4-yl)amino]phenoxy}-1,3-thiazole-4-carboxamide], the GI50 in assay [1] is 12.2 nM; in the assay with Ba/F3-Mock cells, over 10000 nM; in assay [2] it was 5.5 nM; in the assay on Ba/F3-EGFR WT cells it was 77.3 nM.

`COc1cc2ncnc(Nc3ccc(Oc4nn(CC(=O)NC(C)(C)C)cc4F)cc3F)c2cc1NC(=O)/C=C/CN1CC(F)C1` [Example 59, (2E)-N-{4-[4-({1-[2-(tert-Butylamino)-2-oxoethyl]-4-fluoro-1H-pyrazol-3-yl}oxy)-2-fluoroanilino]-7-methoxyquinazolin-6-yl}-4-(3-fluoroazetidin-1-yl)but-2-enamide]: the GI50 is 11.9 nM in assay [1], over 10000 nM in the assay with Ba/F3-Mock cells, 7.4 nM in assay [2] and 468 nM in the assay on Ba/F3-EGFR WT cells.
